From US20180044640A1, “CONTRACTILE CELLULAR CONSTRUCT FOR CELL CULTURE” (Agency for Science, Technology and Research, priority 2015, published 2018) come the findings set out here.

The subject of data set [1] is 3D cardiac tissues (hiPSC-derived cardiomyocytes). As for the experimental part: To generate 3D cardiac tissues, 12-day differentiated cardiac cells were detached from culture wells using accutase (Stem Cell Technologies), suspended in RPMI-B27medium containing Y-27632 (5 uM) to reach a final concentration of 1.5×10^8 cells/mL. Casting molds were prepared by placing the tissue holder and PDMS molds in 96-well culture plates. For each tissue, 12 μL cell suspension was loaded into the cell loading channel. For florescence-labeled cardiac tissue, 12 μL cell suspension was mixed briefly with ˜20 FluoSpheres polystyrene microspheres (diameter 15 μm, Life Technologies) and pipetted into cell loading channels. The 96-well plates were placed in a 37° C., 5% CO2 culture incubator for 2 hours. 0.20 mL of cell culture medium was then added per well for continued culture. After one day of culture, media was changed to RPMI-B27 medium without Y-27632 and changed every day.
Cardiac tissue contractility was assessed based on the recorded video using IMARIS software. The cardiac tissues were labeled with fluorescence beads, as described above. The video was exported as image stacks for IMARIS tracking analysis. The software can identify the contraction and relaxation events based on the relative positions of the florescence beads during the entire tissue beating sequence. These positions were recorded, and the relevant contractility parameters were calculated from the temporal change of these positions.
Toxicity studies were performed using a Zeiss fluorescence microscope, within a closed environment chamber maintaining constant 37° C. temperature and 5% CO2 humidified air for long time lapse imaging of live cells. An experiment design program in Zen software was used to create an automatic measurement program. For chronic drug response, videos were recorded for each well at every 1 h interval.
The videos were recorded at cumulative concentrations 1 hr before measurement, and processed using IMARIS software.

Data set [2] has as its system Cardiac spheroids. Briefly: Toxicity assay based on ATP activity (CellTiter-Glo 3D cell viability assay). On the set-up: species or system human. The settings on record: 1 hr incubation, normalized to drug-free controls.
Description: Cardiac spheroids were incubated with various concentrations of compounds dissolved in culture medium for 1 hr, and cell viability was subsequently measured by CellTiter-Glo® 3D cell viability assay (Promega), which determines the number of viable cells in culture based on quantitation of the ATP present. Data is normalized to drug-free controls. Data from the same treatment on 3 occasions were averaged to represent the mean ATP measurement.
The subject of data set [3] is iPSC-derived cardiomyocytes monolayer. It counts as cell-based. The settings on record: human; for Time at which significant reduced beating speed was observed / Time of total arrest of beating: 2 days. The protocol:
The 12-day differentiated cardiomyocytes were detached using accutase and suspended in RPMI-B27 medium containing Y-27632 (5 uM). The cell suspension was mixed with FluoSpheres polystyrene microspheres, and loaded into matrigel or fibronectin coated 384-well microplate (Greiner) or 96-well tissue culture plates at 0.25˜0.30 *10^6cells/50˜100 microspheres/cm^2.
The videos were recorded for each well at every 1 hr interval and processed using IMARIS software.

Like-named read-outs stand apart in the source and are kept apart here.

Regarding `CCS(=O)(=O)N(C)[C@H]1c2cc(C#N)ccc2OC(C)(C)[C@@H]1O` (racemic) [chromanol 293B], in data set [1], the “Concentration at which complete arrest of contraction was observed” value (shortened to “Concentration … of contraction was observed”) stood at 200 µM.

`CC1(C)S[C@@H]2[C@H](NC(=O)[C@H](N)c3ccccc3)C(=O)N2[C@H]1C(=O)O` [ampicillin, Ampicillin]: in data set [1] (human, 1 h), the “Concentration up to which negligible beating rate changes were observed” value is recorded as “up to 1 mM”. Besides, the “Concentration up to which negligible / no significant toxicity was detected (ATP-based cell viability)” value in data set [2] was at most 10000 µM.

Turning to `CC[C@H]1OC(=O)[C@H](C)[C@@H](O[C@H]2C[C@@](C)(OC)[C@@H](O)[C@H](C)O2)[C@H](C)[C@@H](O[C@@H]2O[C@H](C)C[C@H](N(C)C)[C@H]2O)[C@](C)(O)C[C@@H](C)C(=O)[C@H](C)[C@@H](O)[C@]1(C)O` [erythromycin], the “Concentration … of contraction was observed” value in data set [1] (human, 1 h) stood at 10 µM. Also, the “Concentration up to which negligible / no significant toxicity was detected (ATP-based cell viability)” value in data set [2] was “up to 500 μM”.

Consider `CN(C)C(=N)N=C(N)N` [metformin], for which the “Change in beating rates” value in data set [1] is reported as “less pronounced changes in beating rates”.

As to `N=C(N)c1ccc(OCCCCCOc2ccc(C(=N)N)cc2)cc1` [pentamidine, Pentamidine], in data set [3] (1 h), the “Concentration at which complete arrest of beating was observed” value was determined as 100 µM and the “Concentration showing pronounced changes in contraction speed” value came out at 10 µM. In addition, in data set [3] (5 μM), the “Time at which significant reduced beating speed was observed” value amounted to 28 h and the “Time of total arrest of beating” value was found to be 44 h. Also, in data set [3] (10 μM), the “Time at which significant reduced beating speed was observed” value came out at 4 h and the “Time of total arrest of beating” value was 30 h.

As to `C=C[C@H]1C[N@@]2CC[C@H]1C[C@@H]2[C@@H](O)c1ccnc2ccc(OC)cc12` [quinidine], the “Concentration … of contraction was observed” value in data set [1] (human, 1 h) came out at 10 µM.

Regarding `CN(CCOc1ccc(CC2SC(=O)NC2=O)cc1)c1ccccn1` (stereo not shown) [rosiglitazone, Rosiglitazone], the “Concentration … of contraction was observed” value in data set [1] (human, 1 h) turned out to be 50 µM.

In the case of `Cc1c(C)c2c(c(C)c1O)CCC(C)(COc1ccc(CC3SC(=O)NC3=O)cc1)O2` (stereo not shown) [troglitazone], the “Concentration … of contraction was observed” value in data set [1] (human, 1 h) was 50 µM.

As to `N[C@@H]1[C@H]2CN(c3nc4c(cc3F)c(=O)c(C(=O)O)cn4-c3ccc(F)cc3F)C[C@@H]12` [trovafloxacin], in data set [1] (human, 1 h), the “Concentration … of contraction was observed” value worked out at 100 µM.
